One block for each compound: values may come before it. Active and inactive are the calls of the source.
Columns and labels:
Type in all cases: functional
[1] = biological target: T1, High affinity choline transporter 1 (Homo sapiens, UniProt Q9GZV3); assay: CHT inhibitors, dose response, cell-based, 5-point CRC, membrane potential dye (AID 504840)
T1 sequence (Q9GZV3 whole entry): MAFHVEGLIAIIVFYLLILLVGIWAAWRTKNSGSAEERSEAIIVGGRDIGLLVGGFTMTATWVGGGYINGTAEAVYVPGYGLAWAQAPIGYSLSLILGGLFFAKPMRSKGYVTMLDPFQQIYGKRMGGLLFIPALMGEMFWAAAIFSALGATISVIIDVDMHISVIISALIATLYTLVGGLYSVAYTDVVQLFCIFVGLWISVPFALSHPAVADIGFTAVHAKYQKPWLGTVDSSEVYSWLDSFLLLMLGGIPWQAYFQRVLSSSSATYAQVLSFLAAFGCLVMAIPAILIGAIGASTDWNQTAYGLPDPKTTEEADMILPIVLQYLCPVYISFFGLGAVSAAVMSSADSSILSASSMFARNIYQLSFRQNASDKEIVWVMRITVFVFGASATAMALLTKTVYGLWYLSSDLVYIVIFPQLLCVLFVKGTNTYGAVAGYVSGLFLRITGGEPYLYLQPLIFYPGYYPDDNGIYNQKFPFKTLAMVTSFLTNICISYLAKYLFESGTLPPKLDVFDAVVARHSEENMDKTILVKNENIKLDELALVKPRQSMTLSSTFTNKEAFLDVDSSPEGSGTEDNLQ

[2] = biological target: T1, High affinity choline transporter 1; assay: CHT inhibitors, dose response, cell-based, 10-point CRC, membrane potential dye (AID 588401);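 further: membrane potential dye fluorescence of choline-evoked depolarization via CHT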
[3] = biological target: DNA dC->dU-editing enzyme APOBEC-3G (Homo sapiens, UniProt Q9HC16); assay: APOBEC3G deaminase inhibitors, SAR follow-up, biochemical, fluorescence, single-stranded DNA substrate (AID 602136); details: read-out: IC50_Mean
DNA dC->dU-editing enzyme APOBEC-3G, sequence (Q9HC16 whole entry): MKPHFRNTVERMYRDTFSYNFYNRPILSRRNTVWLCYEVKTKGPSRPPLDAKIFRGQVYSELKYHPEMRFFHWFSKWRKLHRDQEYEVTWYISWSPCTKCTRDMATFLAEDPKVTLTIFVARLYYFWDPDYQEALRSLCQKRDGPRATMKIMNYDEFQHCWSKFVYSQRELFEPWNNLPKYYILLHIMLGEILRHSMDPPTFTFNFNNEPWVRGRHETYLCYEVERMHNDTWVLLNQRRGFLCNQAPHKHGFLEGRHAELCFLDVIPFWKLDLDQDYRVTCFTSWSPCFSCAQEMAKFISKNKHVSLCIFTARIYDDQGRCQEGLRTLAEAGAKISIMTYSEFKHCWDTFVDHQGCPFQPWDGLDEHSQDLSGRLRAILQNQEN

[4] = biological target: DNA dC->dU-editing enzyme APOBEC-3A (Homo sapiens, UniProt P31941); assay: SAR analysis of small molecule inhibitors of APOBEC3A DNA Deaminase via a fluorescence-based single-stranded DNA deaminase assay.; details: read-out: IC50_Mean
[5] = biological target: Dual specificity mitogen-activated protein kinase kinase 1 (Homo sapiens, UniProt Q02750); assay: Navigating the Kinome. Panel member name: MAP2K1
Dual specificity mitogen-activated protein kinase kinase 1, sequence (Q02750 whole entry): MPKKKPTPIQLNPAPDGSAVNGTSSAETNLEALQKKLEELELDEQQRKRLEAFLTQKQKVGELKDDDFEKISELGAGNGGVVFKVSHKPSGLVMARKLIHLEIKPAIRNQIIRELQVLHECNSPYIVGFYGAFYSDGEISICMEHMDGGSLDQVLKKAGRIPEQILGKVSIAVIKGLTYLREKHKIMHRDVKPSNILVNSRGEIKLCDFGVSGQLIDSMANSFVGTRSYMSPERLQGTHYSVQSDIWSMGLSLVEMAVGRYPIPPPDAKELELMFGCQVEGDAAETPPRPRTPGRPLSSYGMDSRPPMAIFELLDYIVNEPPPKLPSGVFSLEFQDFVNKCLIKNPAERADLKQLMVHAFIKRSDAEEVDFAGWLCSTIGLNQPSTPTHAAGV

[6] = biological target: ALK tyrosine kinase receptor (Homo sapiens, UniProt Q9UM73);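 further: ALK tested as one member of a kinase panel screen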
[7] = biological target: Tyrosine-protein kinase receptor TYRO3 (Homo sapiens, UniProt Q06418);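 further: TYRO3 value obtained as one member of a kinome-wide profiling panel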
[8] = biological target: Mitogen-activated protein kinase 8 (Homo sapiens, UniProt P45983);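 further: value comes from one member of a kinome-wide kinase profiling panel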
[9] = biological target: Serine/threonine-protein kinase pim-1 (Homo sapiens, UniProt P11309)
Serine/threonine-protein kinase pim-1, sequence (P11309 whole entry): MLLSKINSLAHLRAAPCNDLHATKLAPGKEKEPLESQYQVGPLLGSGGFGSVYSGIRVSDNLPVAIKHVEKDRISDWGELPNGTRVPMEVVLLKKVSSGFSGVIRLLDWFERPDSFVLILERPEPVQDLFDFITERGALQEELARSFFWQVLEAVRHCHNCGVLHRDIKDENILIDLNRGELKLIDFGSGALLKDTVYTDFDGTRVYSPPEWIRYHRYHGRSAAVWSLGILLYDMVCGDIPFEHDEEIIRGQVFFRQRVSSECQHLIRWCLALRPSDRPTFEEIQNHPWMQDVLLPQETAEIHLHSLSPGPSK

[10] = biological target: Tyrosine-protein kinase BTK (Homo sapiens, UniProt Q06187)
[11] = biological target: Fibroblast growth factor receptor 1 (Homo sapiens, UniProt P11362)
Fibroblast growth factor receptor 1, sequence (P11362 whole entry): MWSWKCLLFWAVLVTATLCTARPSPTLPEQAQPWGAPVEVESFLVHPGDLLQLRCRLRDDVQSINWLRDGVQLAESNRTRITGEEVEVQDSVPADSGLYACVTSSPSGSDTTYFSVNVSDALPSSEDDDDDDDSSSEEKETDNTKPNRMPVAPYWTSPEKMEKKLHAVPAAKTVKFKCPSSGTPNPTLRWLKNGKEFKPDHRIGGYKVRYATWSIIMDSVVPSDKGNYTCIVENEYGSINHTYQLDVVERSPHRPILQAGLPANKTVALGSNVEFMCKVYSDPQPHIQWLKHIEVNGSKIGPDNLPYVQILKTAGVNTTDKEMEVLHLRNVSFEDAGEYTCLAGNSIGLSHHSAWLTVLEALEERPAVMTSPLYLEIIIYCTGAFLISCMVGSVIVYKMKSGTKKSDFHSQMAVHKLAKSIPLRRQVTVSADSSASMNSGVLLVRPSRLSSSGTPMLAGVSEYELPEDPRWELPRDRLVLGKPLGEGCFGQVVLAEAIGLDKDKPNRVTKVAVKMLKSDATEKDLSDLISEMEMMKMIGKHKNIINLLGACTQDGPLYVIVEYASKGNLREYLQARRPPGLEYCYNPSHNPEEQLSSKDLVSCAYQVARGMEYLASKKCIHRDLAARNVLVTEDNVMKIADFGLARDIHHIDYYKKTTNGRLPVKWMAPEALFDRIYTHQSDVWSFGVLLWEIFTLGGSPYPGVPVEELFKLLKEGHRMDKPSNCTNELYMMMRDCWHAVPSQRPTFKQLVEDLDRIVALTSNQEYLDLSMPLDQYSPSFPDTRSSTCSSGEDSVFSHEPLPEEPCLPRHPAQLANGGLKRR

[12] = biological target: Serine/threonine-protein kinase TAO1 (Homo sapiens, UniProt Q7L7X3)
[13] = biological target: Glycogen synthase kinase-3 alpha (Homo sapiens, UniProt P49840);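 further: GSK3A result taken from a broad kinome-wide kinase panel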
Glycogen synthase kinase-3 alpha, sequence (P49840 whole entry): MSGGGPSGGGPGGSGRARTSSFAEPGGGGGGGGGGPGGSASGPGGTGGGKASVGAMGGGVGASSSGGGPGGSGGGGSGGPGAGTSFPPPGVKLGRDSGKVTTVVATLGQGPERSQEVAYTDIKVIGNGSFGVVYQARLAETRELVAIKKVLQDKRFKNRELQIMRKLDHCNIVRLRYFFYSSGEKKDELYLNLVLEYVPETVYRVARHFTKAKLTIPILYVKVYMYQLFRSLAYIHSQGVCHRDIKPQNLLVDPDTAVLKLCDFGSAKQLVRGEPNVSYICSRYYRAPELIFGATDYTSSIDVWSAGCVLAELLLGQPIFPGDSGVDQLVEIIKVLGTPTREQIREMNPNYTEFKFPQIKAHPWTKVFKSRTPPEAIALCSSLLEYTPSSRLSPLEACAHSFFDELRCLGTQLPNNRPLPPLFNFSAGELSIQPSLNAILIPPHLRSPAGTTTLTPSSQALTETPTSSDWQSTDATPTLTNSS

[14] = biological target: Mitogen-activated protein kinase kinase kinase kinase 2 (Homo sapiens, UniProt Q12851);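 further: measured as one member of a kinome-wide kinase panel, with MAP4K2 as the panel entry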
Activated CDC42 kinase 1 = Activated CDC42 kinase 1 (Homo sapiens, UniProt Q07912); assay: Navigating the Kinome. Panel member name: ACK1
[15] = biological target: Platelet-derived growth factor receptor beta (Homo sapiens, UniProt P09619);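 further: value comes from a kinome panel, with PDGFRB tested as one panel member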
Platelet-derived growth factor receptor beta, sequence (P09619 whole entry): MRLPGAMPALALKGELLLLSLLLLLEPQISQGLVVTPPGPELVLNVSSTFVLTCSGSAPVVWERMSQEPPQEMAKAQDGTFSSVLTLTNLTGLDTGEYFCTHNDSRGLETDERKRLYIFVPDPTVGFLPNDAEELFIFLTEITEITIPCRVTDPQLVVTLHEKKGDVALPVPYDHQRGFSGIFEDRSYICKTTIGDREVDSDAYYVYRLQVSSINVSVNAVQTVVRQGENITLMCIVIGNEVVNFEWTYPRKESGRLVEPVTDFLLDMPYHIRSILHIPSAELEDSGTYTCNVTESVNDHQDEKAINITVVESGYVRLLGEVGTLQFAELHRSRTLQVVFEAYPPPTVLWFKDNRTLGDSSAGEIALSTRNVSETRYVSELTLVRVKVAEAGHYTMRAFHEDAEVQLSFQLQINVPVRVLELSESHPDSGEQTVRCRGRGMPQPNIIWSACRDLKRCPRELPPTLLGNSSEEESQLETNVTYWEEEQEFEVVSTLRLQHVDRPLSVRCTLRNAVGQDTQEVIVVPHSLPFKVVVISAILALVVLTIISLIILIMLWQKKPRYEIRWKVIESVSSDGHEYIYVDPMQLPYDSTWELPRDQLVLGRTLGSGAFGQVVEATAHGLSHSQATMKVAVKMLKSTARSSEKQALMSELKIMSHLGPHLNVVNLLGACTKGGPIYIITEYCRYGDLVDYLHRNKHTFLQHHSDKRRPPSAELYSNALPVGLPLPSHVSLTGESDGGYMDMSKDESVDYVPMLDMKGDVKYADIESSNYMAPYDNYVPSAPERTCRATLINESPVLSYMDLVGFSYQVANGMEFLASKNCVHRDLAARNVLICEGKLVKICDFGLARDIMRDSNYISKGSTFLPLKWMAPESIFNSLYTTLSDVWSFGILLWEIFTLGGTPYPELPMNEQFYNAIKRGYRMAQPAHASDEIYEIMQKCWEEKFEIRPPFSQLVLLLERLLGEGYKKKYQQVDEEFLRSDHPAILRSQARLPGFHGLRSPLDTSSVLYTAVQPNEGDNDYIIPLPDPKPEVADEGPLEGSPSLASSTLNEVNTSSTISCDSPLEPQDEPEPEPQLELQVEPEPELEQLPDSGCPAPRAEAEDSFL

[16] = biological target: Serine/threonine-protein kinase Chk1 (Homo sapiens, UniProt O14757);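 further: measured as one member of a kinome-wide kinase profiling panel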
Serine/threonine-protein kinase Chk1, sequence (O14757 whole entry): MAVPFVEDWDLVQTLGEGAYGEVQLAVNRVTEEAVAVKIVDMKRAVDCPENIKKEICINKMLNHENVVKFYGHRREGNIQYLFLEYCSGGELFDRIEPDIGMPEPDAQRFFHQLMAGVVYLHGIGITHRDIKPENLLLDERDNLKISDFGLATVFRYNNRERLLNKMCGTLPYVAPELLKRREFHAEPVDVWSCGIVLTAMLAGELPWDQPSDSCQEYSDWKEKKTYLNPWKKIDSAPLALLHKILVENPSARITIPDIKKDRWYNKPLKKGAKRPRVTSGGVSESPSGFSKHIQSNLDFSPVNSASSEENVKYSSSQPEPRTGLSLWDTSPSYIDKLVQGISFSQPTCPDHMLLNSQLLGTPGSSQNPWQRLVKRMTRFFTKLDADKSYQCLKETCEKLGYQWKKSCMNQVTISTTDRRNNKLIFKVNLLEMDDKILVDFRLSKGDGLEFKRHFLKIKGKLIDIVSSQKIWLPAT

[17] = biological target: Vascular endothelial growth factor receptor 2 (Homo sapiens, UniProt P35968)
[18] = biological target: G protein-coupled receptor kinase 5 (Homo sapiens, UniProt P34947); assay: Navigating the Kinome. Panel member name: GPRK5
[19] = biological target: Leucine-rich repeat serine/threonine-protein kinase 2 (Homo sapiens, UniProt Q5S007);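 further: value from a broad kinome-wide panel profiling study in which LRRK2 was one of the kinases tested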
[20] = biological target: Cyclin-dependent kinase 19 (Homo sapiens, UniProt Q9BWU1); assay: Navigating the Kinome. Panel member name: CDC2L6
[21] = biological target: Tyrosine-protein kinase Fyn (Homo sapiens, UniProt P06241)
Tyrosine-protein kinase Fyn, sequence (P06241 whole entry): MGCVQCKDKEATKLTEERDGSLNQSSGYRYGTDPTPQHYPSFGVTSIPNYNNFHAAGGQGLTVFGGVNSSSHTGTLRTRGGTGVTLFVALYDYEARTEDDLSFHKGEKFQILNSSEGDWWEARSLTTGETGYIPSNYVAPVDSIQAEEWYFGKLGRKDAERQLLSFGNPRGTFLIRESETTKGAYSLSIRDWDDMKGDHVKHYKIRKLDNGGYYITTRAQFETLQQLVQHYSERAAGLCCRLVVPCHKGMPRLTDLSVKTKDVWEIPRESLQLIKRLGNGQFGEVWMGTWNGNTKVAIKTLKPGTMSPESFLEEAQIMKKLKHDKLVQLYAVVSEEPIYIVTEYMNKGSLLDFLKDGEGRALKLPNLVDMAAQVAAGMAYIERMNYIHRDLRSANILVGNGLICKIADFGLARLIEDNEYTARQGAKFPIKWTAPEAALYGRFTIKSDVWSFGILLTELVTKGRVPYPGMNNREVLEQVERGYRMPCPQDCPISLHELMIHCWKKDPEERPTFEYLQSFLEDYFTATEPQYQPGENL

[22] = biological target: Serine/threonine-protein kinase Nek2 (Homo sapiens, UniProt P51955)
[23] = biological target: Cyclin-dependent kinase 8 (Homo sapiens, UniProt P49336); assay: Navigating the Kinome. Panel member name: CDK8
[24] = biological target: Glycogen synthase kinase-3 beta (Homo sapiens, UniProt P49841);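 further: value comes from a broad kinome profiling panel, with GSK3B as the panel member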
Glycogen synthase kinase-3 beta, sequence (P49841 whole entry): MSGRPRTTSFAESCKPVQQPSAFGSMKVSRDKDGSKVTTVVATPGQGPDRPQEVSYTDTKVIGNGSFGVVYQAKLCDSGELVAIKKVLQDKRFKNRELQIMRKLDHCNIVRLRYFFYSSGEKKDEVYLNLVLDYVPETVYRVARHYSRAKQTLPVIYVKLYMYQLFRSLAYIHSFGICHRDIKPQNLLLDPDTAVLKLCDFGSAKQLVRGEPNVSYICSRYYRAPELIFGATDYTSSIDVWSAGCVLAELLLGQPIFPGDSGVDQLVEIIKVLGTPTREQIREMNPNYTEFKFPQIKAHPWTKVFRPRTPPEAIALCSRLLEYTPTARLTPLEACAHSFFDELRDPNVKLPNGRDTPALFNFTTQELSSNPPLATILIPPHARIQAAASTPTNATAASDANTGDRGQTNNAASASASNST

[25] = biological target: Dual specificity mitogen-activated protein kinase kinase 2 (Homo sapiens, UniProt P36507); assay: Navigating the Kinome. Panel member name: MAP2K2
[26] = biological target: Inhibitor of nuclear factor kappa-B kinase subunit epsilon (Homo sapiens, UniProt Q14164); assay: Navigating the Kinome. Panel member name: IKBKE
[27] = biological target: T1, High affinity choline transporter 1; assay: CHT activators, dose response, cell-based, 10-point CRC, membrane potential dye (AID 602376)

IC50 [1]: 4.1 µM (active) | IC50 [2]: 1.41 µM (active)
SMILES: Cc1cccc(NC(=O)c2[nH]nc([N+](=O)[O-])c2Br)c1C

SMILES: COc1ccc(-c2nnc(SCC(=O)c3cccc(Br)c3)[nH]2)cc1
IC50 [3]: > 99 µM (inactive) | IC50 [4]: > 99 µM (inactive)

Ki [5]: 2.51 µM (active) | Ki [6]: 5.01 µM (active) | Ki [7]: 2.51 µM (active) | Ki [8]: 5.01 µM (active) | Ki [9]: 3.98 µM (active) | Ki [10]: 5.01 µM (active) | Ki [11]: 3.98 µM (active) | Ki [12]: > 6.31 µM (inactive) | Ki [13]: 3.98 µM (active) | Ki [14]: 2.51 µM (active) | Ki (Activated CDC42 kinase 1): 3.98 µM (active) | Ki [15]: 2 µM (active) | Ki [16]: 0.631 µM (active) | Ki [17]: 2 µM (active) | Ki [18]: 3.98 µM (active) | Ki [19]: 2.51 µM (active) | Ki [20]: 3.16 µM (active) | Ki [21]: 5.01 µM (active) | Ki [22]: 3.16 µM (active) | Ki [23]: 3.98 µM (active) | Ki [24]: 3.16 µM (active) | Ki [25]: 1.58 µM (active) | Ki [26]: 3.16 µM (active)
SMILES: O=c1[nH]n2ccccc2c1Br

SMILES: COc1ccc(-c2nnc(SC(C)C(=O)NCc3ccc4c(c3)OCO4)n2Cc2ccco2)cc1 (stereo not drawn)
EC50 [27]: 24.3 µM (active)

From ChEMBL document CHEMBL1201862, “PubChem BioAssay data set” (2004)
